In ChEMBL document CHEMBL2331451, “Discovery of (1R,2R)-N-(4-(6-isopropylpyridin-2-yl)-3-(2-methyl-2H-indazol-5-yl)isothiazol-5-yl)-2-methylcyclopropanecarboxamide, a potent and orally efficacious mGlu5 receptor negative allosteric modulator” (Bioorg Med Chem Lett, 2013):
One block for each compound: values may come before it. Activity calls are given as the source filed them. The rule behind the calls is not given here.

Tests used:
[1] = molecular target: Metabotropic glutamate receptor 1 (Homo sapiens, UniProt Q13255); test: Negative allosteric modulation of human recombinant mGlu1 receptor expressed in Syrian hamster AV12 cells assessed as receptor-mediated changes in intracellular calcium concentration by FLIPR assay; format: functional, cell-based
Homo sapiens = organism: Homo sapiens; test: Selectivity ratio of IC50 for human recombinant mGlu1 receptor to IC50 for human recombinant mGlu5 receptor
[2] = molecular target: Metabotropic glutamate receptor 5 (Homo sapiens, UniProt P41594); test: Negative allosteric modulation of human recombinant mGlu5 receptor expressed in Syrian hamster AV12 cells assessed as receptor-mediated changes in intracellular calcium concentration by FLIPR assay; format: functional, cell-based
[3] = Volume of distribution in Harlan Sprague-Dawley rat at 1.5 mg/kg, po and 1 mg/kg, iv; format: ADME, organism-based; details: in vivo
[4] = Drug uptake in Harlan Sprague-Dawley rat brain at 10 mg/kg, po after 0.5 hrs; format: ADME, organism-based; parameters: dose 10 mg/kg, route oral; details: read-out: Drug uptake
[5] = Tmax in Harlan Sprague-Dawley rat at 1.5 mg/kg, po; format: ADME, organism-based; parameters: dose 1.5 mg/kg, route oral; details: in vivo
Rattus norvegicus [6] = test: Ex vivo receptor occupancy of mGlu5 receptor in Harlan Sprague-Dawley rat brain at 10 mg/kg, po after 6 hrs; format: functional
Rattus norvegicus [7] = test: Ex vivo receptor occupancy of mGlu5 receptor in Harlan Sprague-Dawley rat brain at 10 mg/kg, po after 4 hrs; format: functional
Rattus norvegicus [8] = test: Analgesic activity in po dosed fasted Harlan Sprague-Dawley rat assessed as inhibition of late phase of formalin- induced paw-licking pain behavior; format: functional
[9] = Drug uptake in Harlan Sprague-Dawley rat brain at 10 mg/kg, po after 24 hrs; format: ADME, organism-based; parameters: dose 10 mg/kg, route oral; details: read-out: Drug uptake
[10] = Bioavailability in Harlan Sprague-Dawley rat at 1.5 mg/kg, po and 1 mg/kg, iv; format: ADME, organism-based; details: in vivo
Rattus norvegicus [11] = test: Ex vivo receptor occupancy of mGlu1 receptor in Harlan Sprague-Dawley rat brain up to 10 mg/kg, po; format: functional, organism-based; parameters: dose 10 mg/kg
[12] = Drug uptake in Harlan Sprague-Dawley rat brain at 10 mg/kg, po after 2 hrs; format: ADME, organism-based; parameters: dose 10 mg/kg, route oral; details: read-out: Drug uptake
Rattus norvegicus [13] = test: Ex vivo receptor occupancy of mGlu5 receptor in Harlan Sprague-Dawley rat brain at 10 mg/kg, po after 24 hrs; format: functional
[14] = Drug uptake in Harlan Sprague-Dawley rat brain at 10 mg/kg, po after 6 hrs; format: ADME, organism-based; parameters: dose 10 mg/kg, route oral; details: read-out: Drug uptake
[15] = Elimination half life in Harlan Sprague-Dawley rat at 1 mg/kg, iv; format: ADME, organism-based; parameters: dose 1 mg/kg, route intravenous; details: in vivo, read-out: beta t1/2 (converted)
[16] = molecular target: Metabotropic glutamate receptor 5 (Rattus norvegicus, UniProt P31424); test: Negative allosteric modulation of rat mGlu5 receptor
Rattus norvegicus [17] = test: Ex vivo receptor occupancy of mGlu5 receptor in Harlan Sprague-Dawley rat brain at 10 mg/kg, po after 1 hr; format: functional
[18] = Elimination half life in Harlan Sprague-Dawley rat at 1.5 mg/kg, po; format: ADME, organism-based; parameters: dose 1.5 mg/kg, route oral; details: in vivo, read-out: beta t1/2 (converted)
Rattus norvegicus [19] = organism: Rattus norvegicus; test: Neurotoxicity in Harlan Sprague-Dawley rat assessed as minimal motor impairment up to 4 hrs by rotorod test; format: toxicity, organism-based; details: in vivo
[20] = molecular target: T1, 5-hydroxytryptamine receptor 2B (Homo sapiens, UniProt P41595); test: Binding affinity to 5HT2B receptor (unknown origin)
Rattus norvegicus [21] = test: Ex vivo receptor occupancy of mGlu5 receptor in Harlan Sprague-Dawley rat brain at 10 mg/kg, po after 0.5 hrs; format: functional
Rattus norvegicus [22] = test: Ex vivo receptor occupancy of mGlu5 receptor in po dosed Harlan Sprague-Dawley rat brain; format: functional
[23] = Drug uptake in Harlan Sprague-Dawley rat brain at 10 mg/kg, po after 1 hr; format: ADME, organism-based; parameters: dose 10 mg/kg, route oral; details: read-out: Drug uptake
[24] = Cmax in Harlan Sprague-Dawley rat at 1.5 mg/kg, po; format: ADME, organism-based; parameters: dose 1.5 mg/kg, route oral; details: in vivo
[25] = AUC (0 to 24 hrs) in Harlan Sprague-Dawley rat at 1.5 mg/kg, po; format: ADME, organism-based; parameters: time < 24 hr, dose 1.5 mg/kg, route oral; details: plasma
[26] = molecular target: T1, 5-hydroxytryptamine receptor 2B; details: 1 uM
Description: Inhibition of 5HT2B receptor (unknown origin) at 1 uM

Rattus norvegicus [27] = test: Ex vivo receptor occupancy of mGlu5 receptor in Harlan Sprague-Dawley rat brain at 10 mg/kg, po after 2 hrs; format: functional
[28] = Clearance in Harlan Sprague-Dawley rat at 1.5 mg/kg, po and 1 mg/kg, iv; format: ADME, organism-based; details: in vivo
[29] = Drug uptake in Harlan Sprague-Dawley rat brain at 10 mg/kg, po after 4 hrs; format: ADME, organism-based; parameters: dose 10 mg/kg, route oral; details: read-out: Drug uptake

Metabotropic glutamate receptor 1, sequence (Q13255 whole entry): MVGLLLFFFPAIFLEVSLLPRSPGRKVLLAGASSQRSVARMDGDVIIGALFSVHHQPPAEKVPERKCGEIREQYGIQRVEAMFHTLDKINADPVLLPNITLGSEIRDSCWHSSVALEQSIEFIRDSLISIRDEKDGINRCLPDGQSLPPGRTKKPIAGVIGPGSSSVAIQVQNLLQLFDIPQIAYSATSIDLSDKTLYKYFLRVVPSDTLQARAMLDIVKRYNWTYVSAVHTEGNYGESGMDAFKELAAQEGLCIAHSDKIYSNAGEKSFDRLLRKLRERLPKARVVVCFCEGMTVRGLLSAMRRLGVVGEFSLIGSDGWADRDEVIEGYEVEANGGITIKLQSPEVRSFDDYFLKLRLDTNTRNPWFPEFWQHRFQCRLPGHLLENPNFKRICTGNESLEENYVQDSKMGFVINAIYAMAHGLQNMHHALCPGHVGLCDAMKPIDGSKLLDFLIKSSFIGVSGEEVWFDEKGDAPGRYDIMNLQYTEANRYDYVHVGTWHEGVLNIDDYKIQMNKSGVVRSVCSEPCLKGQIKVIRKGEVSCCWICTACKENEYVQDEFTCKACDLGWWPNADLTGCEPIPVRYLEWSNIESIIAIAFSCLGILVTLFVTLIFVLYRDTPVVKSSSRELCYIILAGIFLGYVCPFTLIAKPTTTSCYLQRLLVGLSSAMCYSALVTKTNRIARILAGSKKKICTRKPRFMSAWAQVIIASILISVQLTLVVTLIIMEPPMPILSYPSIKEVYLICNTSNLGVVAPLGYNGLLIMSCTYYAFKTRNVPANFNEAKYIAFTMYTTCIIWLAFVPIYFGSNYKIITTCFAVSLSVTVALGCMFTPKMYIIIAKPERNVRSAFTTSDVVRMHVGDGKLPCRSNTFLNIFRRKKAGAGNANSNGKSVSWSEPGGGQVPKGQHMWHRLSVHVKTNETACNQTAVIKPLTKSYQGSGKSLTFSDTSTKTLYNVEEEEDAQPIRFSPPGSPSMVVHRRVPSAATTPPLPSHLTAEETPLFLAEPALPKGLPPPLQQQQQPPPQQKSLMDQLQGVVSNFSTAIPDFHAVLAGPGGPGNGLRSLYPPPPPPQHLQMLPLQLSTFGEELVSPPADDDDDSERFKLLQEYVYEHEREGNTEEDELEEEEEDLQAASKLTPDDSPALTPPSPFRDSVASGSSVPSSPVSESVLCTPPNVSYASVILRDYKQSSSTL
Metabotropic glutamate receptor 5 (Homo sapiens, UniProt P41594), sequence (P41594 whole entry): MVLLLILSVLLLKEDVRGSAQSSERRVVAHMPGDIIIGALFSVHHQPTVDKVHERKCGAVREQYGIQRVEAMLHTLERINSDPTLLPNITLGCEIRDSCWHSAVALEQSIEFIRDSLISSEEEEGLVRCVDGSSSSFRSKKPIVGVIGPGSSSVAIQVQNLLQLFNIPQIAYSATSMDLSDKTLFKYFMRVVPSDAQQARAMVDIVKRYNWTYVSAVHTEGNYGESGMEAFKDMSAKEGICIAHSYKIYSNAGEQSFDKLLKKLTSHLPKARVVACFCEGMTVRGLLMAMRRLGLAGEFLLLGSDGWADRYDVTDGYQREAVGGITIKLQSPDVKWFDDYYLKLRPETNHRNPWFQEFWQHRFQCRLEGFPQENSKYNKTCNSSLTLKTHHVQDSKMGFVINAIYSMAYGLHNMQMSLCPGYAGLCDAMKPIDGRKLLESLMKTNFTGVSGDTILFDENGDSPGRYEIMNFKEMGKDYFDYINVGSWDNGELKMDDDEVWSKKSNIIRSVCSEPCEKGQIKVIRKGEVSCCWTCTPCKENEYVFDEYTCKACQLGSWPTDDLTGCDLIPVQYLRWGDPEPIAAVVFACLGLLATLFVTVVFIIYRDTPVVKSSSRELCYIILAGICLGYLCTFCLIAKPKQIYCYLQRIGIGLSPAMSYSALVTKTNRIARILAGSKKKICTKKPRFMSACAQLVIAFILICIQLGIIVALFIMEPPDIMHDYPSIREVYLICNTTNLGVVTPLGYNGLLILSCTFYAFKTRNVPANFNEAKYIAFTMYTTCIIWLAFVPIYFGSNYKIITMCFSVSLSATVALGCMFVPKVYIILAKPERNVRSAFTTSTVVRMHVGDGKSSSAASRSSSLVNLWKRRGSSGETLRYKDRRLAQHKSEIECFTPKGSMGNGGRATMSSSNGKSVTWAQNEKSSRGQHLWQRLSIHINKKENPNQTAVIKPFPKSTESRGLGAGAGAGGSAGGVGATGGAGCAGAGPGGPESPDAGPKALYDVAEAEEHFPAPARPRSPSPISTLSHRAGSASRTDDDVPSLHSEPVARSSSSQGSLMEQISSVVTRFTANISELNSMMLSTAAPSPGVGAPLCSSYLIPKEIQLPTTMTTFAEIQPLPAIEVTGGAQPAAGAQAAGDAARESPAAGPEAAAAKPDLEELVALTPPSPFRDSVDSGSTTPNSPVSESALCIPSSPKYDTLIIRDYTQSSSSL
T1 sequence (P41595 whole entry): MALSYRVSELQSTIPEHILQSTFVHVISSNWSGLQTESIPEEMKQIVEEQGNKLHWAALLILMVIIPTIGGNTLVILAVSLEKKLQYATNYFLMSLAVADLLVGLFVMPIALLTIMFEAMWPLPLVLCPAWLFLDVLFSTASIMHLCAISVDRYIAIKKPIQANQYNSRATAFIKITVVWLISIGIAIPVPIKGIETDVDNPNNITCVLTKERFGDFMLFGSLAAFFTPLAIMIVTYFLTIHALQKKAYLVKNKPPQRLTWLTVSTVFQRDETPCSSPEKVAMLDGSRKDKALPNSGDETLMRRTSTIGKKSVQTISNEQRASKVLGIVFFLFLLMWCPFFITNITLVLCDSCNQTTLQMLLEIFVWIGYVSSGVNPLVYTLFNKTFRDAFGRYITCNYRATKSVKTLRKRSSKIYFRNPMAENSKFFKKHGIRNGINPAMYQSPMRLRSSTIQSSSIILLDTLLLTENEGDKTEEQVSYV
Metabotropic glutamate receptor 5 (Rattus norvegicus, UniProt P31424), sequence (P31424 whole entry): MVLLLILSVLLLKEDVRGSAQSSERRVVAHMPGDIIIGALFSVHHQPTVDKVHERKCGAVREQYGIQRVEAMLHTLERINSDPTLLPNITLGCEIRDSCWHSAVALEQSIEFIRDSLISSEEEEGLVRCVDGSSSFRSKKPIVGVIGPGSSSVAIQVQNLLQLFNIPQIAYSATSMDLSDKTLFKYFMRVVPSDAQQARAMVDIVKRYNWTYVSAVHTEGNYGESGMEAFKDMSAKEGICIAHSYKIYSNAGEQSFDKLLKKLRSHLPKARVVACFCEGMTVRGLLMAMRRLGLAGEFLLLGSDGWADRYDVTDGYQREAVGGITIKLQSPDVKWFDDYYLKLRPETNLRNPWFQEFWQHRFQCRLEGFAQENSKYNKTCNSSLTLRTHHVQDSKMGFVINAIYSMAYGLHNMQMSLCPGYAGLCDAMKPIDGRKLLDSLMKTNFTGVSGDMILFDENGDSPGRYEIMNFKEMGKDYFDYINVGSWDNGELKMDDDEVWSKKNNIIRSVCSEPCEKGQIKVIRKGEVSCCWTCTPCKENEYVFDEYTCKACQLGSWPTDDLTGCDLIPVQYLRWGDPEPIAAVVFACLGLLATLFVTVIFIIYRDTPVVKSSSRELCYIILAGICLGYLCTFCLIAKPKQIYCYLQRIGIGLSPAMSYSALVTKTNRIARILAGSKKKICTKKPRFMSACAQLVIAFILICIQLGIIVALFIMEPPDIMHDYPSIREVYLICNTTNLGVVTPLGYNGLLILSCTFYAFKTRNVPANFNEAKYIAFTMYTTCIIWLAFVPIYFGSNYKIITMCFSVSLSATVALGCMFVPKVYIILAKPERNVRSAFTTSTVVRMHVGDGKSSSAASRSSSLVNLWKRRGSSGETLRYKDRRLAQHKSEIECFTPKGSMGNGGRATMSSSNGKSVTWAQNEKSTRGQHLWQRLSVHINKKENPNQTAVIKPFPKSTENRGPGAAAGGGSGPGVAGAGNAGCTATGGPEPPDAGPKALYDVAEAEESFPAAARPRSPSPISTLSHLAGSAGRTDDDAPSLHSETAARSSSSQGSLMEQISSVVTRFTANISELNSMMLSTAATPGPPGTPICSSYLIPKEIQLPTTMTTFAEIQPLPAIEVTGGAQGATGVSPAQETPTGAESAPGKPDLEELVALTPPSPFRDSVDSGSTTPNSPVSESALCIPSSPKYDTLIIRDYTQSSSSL

SMILES: CNc1cccc(-c2c(-c3ccc4nn(C)cc4c3)nsc2NC(=O)[C@@H]2C[C@H]2C)n1
IC50 [1]: 1590 nM | Ratio IC50 (Homo sapiens): 26 | IC50 [2]: 62 nM

SMILES: C[C@@H]1C[C@H]1C(=O)Nc1snc(-c2ccc3nn(C)cc3c2)c1-c1cccc(N(C)C)n1
IC50 [1]: 9540 nM | Ratio IC50 (Homo sapiens): 477 | IC50 [2]: 20 nM

SMILES: C[C@@H]1C[C@H]1C(=O)Nc1snc(-c2ccc3n[nH]cc3c2)c1-c1cccc(N(C)C)n1
IC50 [1]: > 12500 nM | Ratio IC50 (Homo sapiens): > 266 | IC50 [2]: 47 nM

SMILES: CCc1cccc(-c2c(-c3ccc4n[nH]cc4c3)nsc2NC(=O)[C@@H]2C[C@H]2C)n1
IC50 [1]: 3110 nM | Ratio IC50 (Homo sapiens): 86 | IC50 [2]: 36 nM

SMILES: CC[C@@H]1C[C@H]1C(=O)Nc1snc(-c2ccc3nn(C)cc3c2)c1-c1cccc(N(C)C)n1
IC50 [1]: > 12500 nM | Ratio IC50 (Homo sapiens): > 357 | IC50 [2]: 35 nM

SMILES: C[C@@H]1C[C@H]1C(=O)Nc1snc(-c2ccc3nn(C)cc3c2)c1-c1cccc(CF)n1
IC50 [1]: 1300 nM | Ratio IC50 (Homo sapiens): 26 | IC50 [2]: 50 nM

SMILES: COc1ccc(-c2nsc(NC(=O)[C@@H]3C[C@H]3C)c2C)cc1
Ratio IC50 (Homo sapiens): > 20

SMILES: Cc1cccc(-c2c(-c3ccc4nn(C)cc4c3)nsc2NC(=O)[C@@H]2C[C@H]2C)n1
IC50 [1]: 2210 nM | Ratio IC50 (Homo sapiens): 49 | IC50 [2]: 45 nM

SMILES: CC(C)c1cccc(-c2c(-c3ccc4n[nH]cc4c3)nsc2NC(=O)[C@@H]2C[C@H]2C)n1
IC50 [1]: 4570 nM | Ratio IC50 (Homo sapiens): 102 | IC50 [2]: 45 nM

SMILES: C[C@@H]1C[C@H]1C(=O)Nc1snc(-c2ccc3nn(C)cc3c2)c1-c1cccc(C(F)F)n1
IC50 [1]: 1020 nM | Ratio IC50 (Homo sapiens): 13 | IC50 [2]: 81 nM

Second part, led by results:

IC50 [1]: 279 nM | Ratio IC50 (Homo sapiens): 28 | IC50 [2]: 10 nM
SMILES: CCc1cccc(-c2c(-c3ccc4nn(C)cc4c3)nsc2NC(=O)[C@@H]2C[C@H]2C)n1

IC50 [1]: 397 nM | Ratio IC50 (Homo sapiens): 10 | IC50 [2]: 39 nM
SMILES: CC(C)c1cccc(-c2c(-c3ccc4nn(C)cc4c3)nsc2NC(=O)C2CC2)n1

IC50 [1]: 238 nM | Ratio IC50 (Homo sapiens): 8 | IC50 [2]: 29 nM
SMILES: C[C@@H]1C[C@H]1C(=O)Nc1snc(-c2ccc3nn(C)cc3c2)c1-c1ccccn1

IC50 [1]: 891 nM | Ratio IC50 (Homo sapiens): 33 | IC50 [2]: 27 nM
SMILES: C[C@@H]1C[C@H]1C(=O)Nc1snc(-c2ccc3nn(C)cc3c2)c1-c1cccc(C2CCCC2)n1

IC50 [1]: 190 nM | Ratio IC50 (Homo sapiens): 5 | IC50 [2]: 36 nM
SMILES: COc1cccc(-c2c(-c3ccc4nn(C)cc4c3)nsc2NC(=O)[C@@H]2C[C@H]2C)n1

IC50 [1]: 644 nM | Vd [3]: 2.7 L/kg | concentration at 0.5 h [4]: 1240 nM | Tmax [5]: 2 h | concentration at 24 h [9]: 2340 nM | bioavailability [10]: 56.5% | Ratio IC50 (Homo sapiens): 34 | concentration at 2 h [12]: 2850 nM | concentration at 6 h [14]: 2980 nM | half-life [15]: 4.9 h | IC50 [16]: 167 nM | half-life [18]: 4.6 h | Ki [20]: 3160 nM | Activity (Rattus norvegicus [22]): Dose-dependent effect | concentration at 1 h [23]: 2230 nM | Cmax [24]: 255 ng/mL | IC50 [2]: 19 nM | AUC(0-t) at 24 h [25]: 1570 ng·h/mL | inhibition [26]: 56% | clearance [28]: 8.4 mL/min/kg | concentration at 4 h [29]: 2590 nM
SMILES: CC(C)c1cccc(-c2c(-c3ccc4nn(C)cc4c3)nsc2NC(=O)[C@@H]2C[C@H]2C)n1.Cl
Activity (Rattus norvegicus [6]): 62.5% | Activity (Rattus norvegicus [7]): 67.7% | ED50 (Rattus norvegicus [8]): 25.5 mg/kg | inhibition (Rattus norvegicus [8]): Dose-dependent effect | Activity (Rattus norvegicus [11]): inactive | Activity (Rattus norvegicus [13]): 58.9% | Activity (Rattus norvegicus [17]): 57.8% | Activity (Rattus norvegicus [19]): Non-toxic | Activity (Rattus norvegicus [21]): 37.8% | ED50 (Rattus norvegicus [22]): 2.1 mg/kg | Activity (Rattus norvegicus [27]): 74.3%

IC50 [1]: 687 nM | Ratio IC50 (Homo sapiens): 13 | IC50 [2]: 54 nM
SMILES: C[C@@H]1C[C@H]1C(=O)Nc1snc(-c2ccc3nn(C)cc3c2)c1-c1cccc(C2CCC2)n1

IC50 [1]: 735 nM | Ratio IC50 (Homo sapiens): 25 | IC50 [2]: 30 nM
SMILES: C[C@@H]1C[C@H]1C(=O)Nc1snc(-c2ccc3nn(C)cc3c2)c1-c1cccc(C2CC2)n1

IC50 [1]: 409 nM | Ratio IC50 (Homo sapiens): 20 | IC50 [2]: 20 nM
SMILES: CCCc1cccc(-c2c(-c3ccc4nn(C)cc4c3)nsc2NC(=O)[C@@H]2C[C@H]2C)n1
